Measured values as given in ChEMBL document CHEMBL1142842, “Trifluoromethylation of flavonoids and anti-tumor activity of the trifluoromethylated flavonoid derivatives” (2005).

Columns and labels:
[1] = tested on: U2OS; experiment: In vitro effect on the S phase of cell cycle of U2OS cells upon incubation at 37 degree for 24 hours in FCM assay at concentration of 500 nM; type: functional, Homo sapiens
[2] = tested on: U2OS; experiment: In vitro effect on the G1 phase of cell cycle of U2OS cells upon incubation at 37 degree for 24 hours in FCM assay at concentration of 500 nM; type: functional, Homo sapiens
[3] = tested on: U2OS; experiment: In vitro effect on the G2/M phase of cell cycle of U2OS cells upon incubation at 37 degree for 24 hours in FCM assay at concentration of 500 nM; type: functional, Homo sapiens
[4] = tested on: U2OS; experiment: In vitro effect on the G2/M phase of cell cycle of U2OS cells upon incubation at 37 degree for 24 hours in FCM assay; all the cell died at tested concentration (500 nM); type: functional, cell-based; conditions: Homo sapiens
[5] = tested on: U2OS; experiment: In vitro effect on the S phase of cell cycle of U2OS cells upon incubation at 37 degree for 24 hours in FCM assay; all the cell died at tested concentration (500 nM); type: functional, cell-based; conditions: Homo sapiens
[6] = tested on: U2OS; experiment: In vitro effect on the G1 phase of cell cycle of U2OS cells upon incubation at 37 degree for 24 hours in FCM assay; all the cell died at tested concentration (500 nM); type: functional, cell-based; conditions: Homo sapiens

Structure (SMILES)	Content of cell cycle [1] [%]	Content of cell cycle [2] [%]	Content of cell cycle [3] [%]	also measured
COc1cc(OC)c2c(=O)c(C(F)(F)F)c(-c3ccccc3)oc2c1	31.95	53.06	14.99	–
COc1ccc(-c2oc3cc(OC)cc(OC)c3c(=O)c2C(F)(F)F)cc1	49.24	44.09	6.67	–
COc1cc(OC)c2c(=O)cc(-c3cc(C(F)(F)F)c(OC)c(C(F)(F)F)c3)oc2c1	44.92	55.08	0	–
COc1ccc(-c2c(C(F)(F)F)oc3cc(OC)cc(OC)c3c2=O)cc1	–	–	–	Activity [1]: 48.02%; Activity [2]: 46.69%; Activity [3]: 5.29%
COc1cc(OC)c2c(c1)OC(c1ccccc1)=CC2(O)C(F)(F)F (stereo not given)	–	–	–	Activity [4]: all the cells died at tested concentration (500 nM); Activity [5]: all the cells died at tested concentration (500 nM); Activity [6]: all the cells died at tested concentration (500 nM)
